Data published in patent EP4574817A1 (LoQus23 Therapeutics Limited, priority 2023, dated 2025).

What was measured:
MutSβ = molecular target: T1, MutSβ (Homo sapiens, UniProt P20585+P43246); experiment: MutSβ ADP Glo Assay; type: biochemical; settings: 20nM MutSβ, 30nM CAG DNA, 25 µM ATP, 2 hours at room temperature
T1 construct: purchased AMRI
Method: Biological Example A - MutSβ Assay
• MutSβ (supplied by AMRI) stored at -70°C • ADP Glo Kinase Assay Kit (Promega: V9102) stored at -20°C • ATP (supplied within the ADP Glo Kit) stored at -20°C • 1M KCI (Sigma Aldrich: P9333) stored at 2-8°C • 1 M HEPES pH 7.5 (Gibco: M15630-080) stored at 2-8°C • 1M MgCl2 (Sigma Aldrich: M1028-100mL) stored at 2-8°C • Tween-20 (Sigma Aldrich: P1379) (10% solution) stored at 2-8°C • 500mM DTT (Sigma Aldrich: 10197777001) stored at -20°C • CAG loop DNA for MutSβ (made in house) stored at -20°C • MilliQ water stored at room temperature
• 1. Prepare the buffer fresh each day • 2. Take the enzyme from the freezer, thaw in room temperature water and centrifuge at 13,000 rpm for 10 minutes at 2-8C, then make up enzyme and ATP stocks • 3. Quality Control the multidrop head to a %CV of <2% • 4. Add 3µL of 33.34nM MutSβ and 50.01nM CAG looped DNA solution […] to each well in columns 1 and 3-23 of the plate • 5. Pre-incubate the MutSβ and buffer mix for 10 minutes with the compounds • 6. Wash the multidrop head through with MilliQ water (for at least 30 seconds) • 7. Add 3µL of MutSβ Assay buffer (without enzyme) to columns 2 and 24 for the vehicle controls • 8. Wash the multidrop head through with MilliQ water (for at least 30 seconds) • 9. Add 2µL of 62.5µM ATP to each well of the whole plate, then wash with MilliQ water (for a minimum of 30 seconds) • 10. Centrifuge plate for 1 minute at 1000 rpm • 11. Incubate for 2 hours at room temperature • 12. Add 5µL of ADP Glo reagent to each well of the whole plate and wash the multidrop head with MilliQ water (for a minimum of 30 seconds) • 13. Incubate for 40 minutes at room temperature (minimum requirement) • 14. Add 10µL of Kinase Detection Reagent to each well of the whole plate • 15. Wash the multidrop head with MilliQ water more than 1 minute and then dry • 16. Remove the head and put the cover back on for overnight storage • 17. Incubate for 30 minutes at room temperature (minimum requirement) • 18. Read on a microplate reader

U20S-IC6 cells = experiment: Lo-Q platform assay (CAG repeat expansion in a clonal cell line with tetracycline-regulated exon 1 HTT ~100 CAG / nanoluc); type: cell-based; settings: 336 h, 2-week assay with tetracycline pulsing, read-out: Minimum effective concentration (MEC)
Text: The cell line that was used in the assay below was generated as follows:
The pcDNA™4/TO vector contains two tetracycline operator 2 (TetO2) sites within the human cytomegalovirus immediate-early (CMV) promoter for tetracycline regulated expression of your gene of interest (Yao et al., 1998). The TetO2 sequences serve as binding sites for four Tet repressor molecules (comprising two Tet repressor homodimers) and confer tetracycline-responsiveness to the gene of interest. In the absence of tetracycline, expression of your gene of interest is repressed by the binding of Tet repressor homodimers to the TetO2 sequences. Addition of tetracycline to the cells de-represses the hybrid CMV/TetO2 promoter in pcDNA™4/TO and allows expression of your gene of interest. The pcDNA™6/TR regulatory plasmid is designed for use with the T-REx™ System for tetracycline-regulated expression of the gene of interest in mammalian cells. (www.lifetechnologies.com).
The expression sequence comprises exon 1 huntingtin with ~100 pure CAG repeats, a P2A self-cleaving peptide and a nanoluc sequence followed by a polyA signal. Full plasmid sequence is indicated (Seq ID NO:3). The plasmid contains sequences for ampicillin (bacterial propagation) and zeocin (mammalian cell lines) resistance.
The U-2 OS cell line (purchased from LGC standards, ATCC) is derived from a moderately differentiated sarcoma from the tibia of an adolescent person. Karyotyping has shown that although there are a lot of chromosomal abnormalities the tumour suppressor genes p53 and pRb are still fully functional in the U2OS cell line.
Routine culture of the adherent cells in non-PDL plastic ware in a humidified 37°C incubator with 5% CO2. Cells were maintained in McCoy's 5A (modified) medium with GlutaMAX supplement (Life Technologies 3660-021) and tetracycline-free FBS (Clontech 631106). Maintenance medium for the clonal cell lines expressing Tet repressor and exon 1 HTT/nanoluc constructs were additionally supplemented with zeocin to 100 ug/ml and blasticidin to 1.25 ug/ml. Cells were passaged at 70-80% confluence once or twice a week, either to a split ratio or defined seeding density using DPBS and TrypLE express enzyme (1x, no phenol red, Life technologies 12604-039) was used to dissociate the cells. Cells were frozen with Cell Banker (AMSBIO 11891) or with medium plus 10% DMSO and stored in liquid nitrogen vapour phase.
Stable, clonal cell lines (e.g. 1C6) are leveraged either identify potential druggable targets, and to assess the effectiveness of therapeutic compounds against a Huntington's disease, by way of quantifying CAG repeats expansion rates.
• Place a vial of the cell line U20S-IC6 (1-2×10^6 cells/mL), produced as described above, in a water bath at 37°C for 30 s. Once thawed, quickly transfer the cells into a 15 mL falcon tube containing 9 mL of McCoys 5A media, supplemented with 10% Tet-free FBS. • Pellet the cells by centrifugation at 300 x g for 5 m and discard the supernatant. • Resuspend the cell pellet in 10 mL fresh media and transfer to a sterile T75 culture flask. • Inspect the culture after 24 h and maintain the cells below 80% confluency, typically passaging every 3-4 days.
The Lo-Q platform has been optimised to run as a 2-week assay, following the standard processes detailed in the schematic in Figure 1A.
• Cell seeding for Lo-Q platform assays should be initiated on Mondays (am) to ensure Tetracycline pulsing can be maintained every other day. • The Friday prior to initiating any Lo-Q platform assay ensure there are sufficient cells in culture to seed the required number of assay plates. If required, passage the cells, otherwise perform a media change to McCoys 5A, 10% Tet-free FBS, 1.25 µg/mL Blasticidin®, and 100 µg/mL Zeocin®. • On the Monday morning, aspirate the media from the required number of culture flasks containing U20S-IC6 cells and wash with 2 mL PBS. • Aspirate the PBS and add 2 mL 0.25% Trypsin EDTA. […]

T1 sequence (P43246 whole entry): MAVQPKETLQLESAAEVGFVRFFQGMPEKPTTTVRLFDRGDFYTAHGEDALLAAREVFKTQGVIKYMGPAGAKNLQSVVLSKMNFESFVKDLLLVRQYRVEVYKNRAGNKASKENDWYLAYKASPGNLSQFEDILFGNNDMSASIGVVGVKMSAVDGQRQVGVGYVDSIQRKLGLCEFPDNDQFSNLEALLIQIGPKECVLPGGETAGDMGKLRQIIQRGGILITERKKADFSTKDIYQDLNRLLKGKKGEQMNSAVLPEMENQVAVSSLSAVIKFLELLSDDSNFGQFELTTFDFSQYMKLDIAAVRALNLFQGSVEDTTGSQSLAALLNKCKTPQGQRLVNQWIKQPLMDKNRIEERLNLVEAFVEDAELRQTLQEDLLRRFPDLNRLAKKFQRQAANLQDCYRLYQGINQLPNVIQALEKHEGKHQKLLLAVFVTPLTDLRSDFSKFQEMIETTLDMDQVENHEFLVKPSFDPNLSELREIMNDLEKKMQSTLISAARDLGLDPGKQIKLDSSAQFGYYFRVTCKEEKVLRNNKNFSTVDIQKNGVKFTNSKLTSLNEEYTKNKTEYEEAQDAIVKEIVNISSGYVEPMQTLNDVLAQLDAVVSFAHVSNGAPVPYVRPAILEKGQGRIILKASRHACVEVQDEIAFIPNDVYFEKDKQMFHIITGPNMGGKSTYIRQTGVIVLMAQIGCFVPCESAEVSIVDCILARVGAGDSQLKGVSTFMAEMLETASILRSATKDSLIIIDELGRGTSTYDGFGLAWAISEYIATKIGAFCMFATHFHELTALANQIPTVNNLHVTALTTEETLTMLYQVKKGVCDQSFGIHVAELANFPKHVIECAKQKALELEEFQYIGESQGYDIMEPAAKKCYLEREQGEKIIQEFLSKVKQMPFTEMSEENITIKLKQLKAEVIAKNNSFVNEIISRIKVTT
T1 sequence (P20585 whole entry): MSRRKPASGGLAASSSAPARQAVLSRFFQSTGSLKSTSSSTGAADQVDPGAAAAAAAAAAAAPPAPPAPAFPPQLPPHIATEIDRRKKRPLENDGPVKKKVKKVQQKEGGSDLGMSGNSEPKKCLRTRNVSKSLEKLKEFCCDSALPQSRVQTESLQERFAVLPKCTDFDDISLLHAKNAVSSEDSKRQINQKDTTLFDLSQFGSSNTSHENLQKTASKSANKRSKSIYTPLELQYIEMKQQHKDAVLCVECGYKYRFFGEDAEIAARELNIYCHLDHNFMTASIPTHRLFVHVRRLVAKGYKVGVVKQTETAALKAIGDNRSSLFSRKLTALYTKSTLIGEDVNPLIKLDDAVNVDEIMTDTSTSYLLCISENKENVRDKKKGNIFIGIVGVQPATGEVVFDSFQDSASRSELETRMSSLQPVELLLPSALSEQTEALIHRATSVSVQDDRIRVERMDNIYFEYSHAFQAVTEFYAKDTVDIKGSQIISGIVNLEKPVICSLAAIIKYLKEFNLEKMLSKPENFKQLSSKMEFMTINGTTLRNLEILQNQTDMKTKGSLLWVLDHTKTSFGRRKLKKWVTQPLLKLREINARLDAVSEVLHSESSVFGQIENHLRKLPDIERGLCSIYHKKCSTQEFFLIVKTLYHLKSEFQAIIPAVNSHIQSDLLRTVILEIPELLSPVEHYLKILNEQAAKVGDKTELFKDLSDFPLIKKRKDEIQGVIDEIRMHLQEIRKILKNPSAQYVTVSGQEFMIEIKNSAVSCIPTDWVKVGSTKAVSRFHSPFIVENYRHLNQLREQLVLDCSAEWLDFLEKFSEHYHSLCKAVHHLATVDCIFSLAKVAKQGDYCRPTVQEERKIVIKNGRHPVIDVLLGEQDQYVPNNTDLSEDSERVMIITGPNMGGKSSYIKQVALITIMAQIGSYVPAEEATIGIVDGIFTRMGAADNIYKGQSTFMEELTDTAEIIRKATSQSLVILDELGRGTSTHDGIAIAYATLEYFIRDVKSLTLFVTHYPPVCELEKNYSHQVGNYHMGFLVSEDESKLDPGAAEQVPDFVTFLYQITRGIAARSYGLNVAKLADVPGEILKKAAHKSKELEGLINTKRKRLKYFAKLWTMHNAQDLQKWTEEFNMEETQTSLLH

Row | SMILES | IC50 (MutSβ) [nM] | minimal effective concentration (U20S-IC6 cells) [µM]
1 | CCNS(=O)(=O)OCC(=O)Nc1nc(C)c(Cc2ccc(C)cc2)s1 [Example 15, 2-((4-methyl-5-(4-methylbenzyl)thiazol-2-yl)amino)-2-oxoethyl ethylsulfamate] | 1000 to 10000 | 0.5 to 1
2 | CNS(=O)(=O)OCC(=O)Nc1nc(C)c(Cc2ccc(Cl)c(Cl)c2)s1 [Example 12, 2-((5-(3,4-dichlorobenzyl)-4-methylthiazol-2-yl)amino)-2-oxoethyl methylsulfamate] | ≤ 500 | 0.5 to 1
3 | CCNS(=O)(=O)OCC(=O)Nc1nc(C)c(Cc2cccc(Cl)c2)s1 [Example 46, 2-((5-(3-chlorobenzyl)-4-methylthiazol-2-yl)amino)-2-oxoethyl ethylsulfamate] | ≤ 500 | ≤ 0.1
4 | CNS(=O)(=O)OCC(=O)Nc1nc(C)c(Cc2ccc(F)c(F)c2)s1 [Example 14, 2-((5-(3,4-difluorobenzyl)-4-methylthiazol-2-yl)amino)-2-oxoethyl methylsulfamate] | 1000 to 10000 | 0.1 to 0.5
5 | CNS(=O)(=O)OCC(=O)Nc1nc(C)c(Cc2ccc(C)cc2)s1 [Example 47, 2-((4-methyl-5-(4-methylbenzyl)thiazol-2-yl)amino)-2-oxoethyl methylsulfamate] | 1000 to 10000 | 
6 | CNS(=O)(=O)OCC(=O)N(C)c1nc(C)c(Cc2ccc(Cl)c(Cl)c2)s1 [Example 59, 2-((5-(3,4-dichlorobenzyl)-4-methylthiazol-2-yl)(methyl)amino)-2-oxoethyl methylsulfamate] | ≤ 500 | 
7 | COCCN(C)S(=O)(=O)OCC(=O)Nc1nc(C)c(Cc2ccc(C)cc2)s1 [Example 29, 2-((4-methyl-5-(4-methylbenzyl)thiazol-2-yl)amino)-2-oxoethyl (2-methoxyethyl)(methyl)sulfamate] | 500 to 1000 | 
8 | CNS(=O)(=O)OCC(=O)Nc1nc(C)c(Cc2ccc(F)c(Cl)c2)s1 [Example 7, 2-((5-(3-chloro-4-fluorobenzyl)-4-methylthiazol-2-yl)amino)-2-oxoethyl methylsulfamate] | ≤ 500 | 
9 | CNS(=O)(=O)OCC(=O)Nc1nc(C)c(Cc2cccc(Cl)c2)s1 [Example 19, 2-((5-(3-chlorobenzyl)-4-methylthiazol-2-yl)amino)-2-oxoethyl methylsulfamate] | 500 to 1000 | ≤ 0.1
10 | Cc1ccc(Cc2sc(NC(=O)COS(=O)(=O)NC(C)C)nc2C)cc1 [Example 23, 2-((4-methyl-5-(4-methylbenzyl)thiazol-2-yl)amino)-2-oxoethyl isopropylsulfamate] | 1000 to 10000 | 
11 | CNS(=O)(=O)OCC(=O)Nc1nc(C)c(Cc2ccc3ccccc3c2)s1 [Example 5, 2-((4-methyl-5-(naphthalen-2-ylmethyl)thiazol-2-yl)amino)-2-oxoethyl methylsulfamate] | 1000 to 10000 | 
12 | CNS(=O)(=O)OCC(=O)Nc1nc(C)c(Cc2cc(F)cc(Cl)c2)s1 [Example 54, 2-((5-(3-chloro-5-fluorobenzyl)-4-methylthiazol-2-yl)amino)-2-oxoethyl methylsulfamate] | 1000 to 10000 | 
13 | CNS(=O)(=O)OCC(=O)Nc1nc(C)c(Cc2cccc(Br)c2)s1 [Example 10, 2-((5-(3-bromobenzyl)-4-methylthiazol-2-yl)amino)-2-oxoethyl methylsulfamate] | ≤ 500 | 0.1 to 0.5
14 | Cc1ccc(Cc2sc(NC(=O)COS(=O)(=O)N3CCCC3)nc2C)cc1 [Example 31, 2-((4-methyl-5-(4-methylbenzyl)thiazol-2-yl)amino)-2-oxoethyl pyrrolidine-1-sulfonate] | 1000 to 10000 | 
15 | CNS(=O)(=O)OCC(=O)N(C)c1nc(C)c(Cc2cccc(Cl)c2)s1 [Example 1, 2-((5-(3-chlorobenzyl)-4-methylthiazol-2-yl)(methyl)amino)-2-oxoethyl methylsulfamate] | ≤ 500 | ≤ 0.1
16 | CNS(=O)(=O)OCC(=O)Nc1nc(C)c(Cc2cccc(F)c2)s1 [Example 27, 2-((5-(3-fluorobenzyl)-4-methylthiazol-2-yl)amino)-2-oxoethyl methylsulfamate] | 1000 to 10000 | 0.1 to 0.5
17 | CNS(=O)(=O)OCC(=O)Nc1nc(COC2CCN(C)CC2)c(Cc2cccc(Cl)c2)s1 [Example 50, 2-((5-(3-chlorobenzyl)-4-(((1-methylpiperidin-4-yl)oxy)methyl)thiazol-2-yl)amino)-2-oxoethyl methylsulfamate] | 10000 to 50000 | 
18 | Cc1ccc(Cc2sc(NC(=O)COS(=O)(=O)NC3CC3)nc2C)cc1 [Example 6, 2-((4-methyl-5-(4-methylbenzyl)thiazol-2-yl)amino)-2-oxoethyl cyclopropylsulfamate] | 1000 to 10000 | 
19 | CNS(=O)(=O)OCC(=O)Nc1nc(C)c(Oc2cccc(Cl)c2)s1 [Example 61, 2-((5-(3-chlorophenoxy)-4-methylthiazol-2-yl)amino)-2-oxoethyl methylsulfamate] | 500 to 1000 | 
20 | CNS(=O)(=O)OCC(=O)Nc1nc(C=O)c(Cc2cccc(Cl)c2)s1 [Example 56, 2-((5-(3-chlorobenzyl)-4-formylthiazol-2-yl)amino)-2-oxoethyl methylsulfamate] | 1000 to 10000 | 
21 | CNS(=O)(=O)OCC(=O)Nc1nc(C)c(C(C)(C)c2cccc(Cl)c2)s1 [Example 52, 2-((5-(2-(3-chlorophenyl)propan-2-yl)-4-methylthiazol-2-yl)amino)-2-oxoethyl methylsulfamate] | 10000 to 50000 | 
22 | CCN(C)S(=O)(=O)OCC(=O)Nc1nc(C)c(Cc2ccc(C)cc2)s1 [Example 39, 2-((4-methyl-5-(4-methylbenzyl)thiazol-2-yl)amino)-2-oxoethyl ethyl(methyl)sulfamate] | 1000 to 10000 | 1 to 5
23 | Cc1nc(NC(=O)COS(=O)(=O)NCCF)sc1Cc1cccc(Cl)c1 [Example 49, 2-((5-(3-chlorobenzyl)-4-methylthiazol-2-yl)amino)-2-oxoethyl (2-fluoroethyl)sulfamate] | 500 to 1000 | 
